Data reported in patent US7576057B2, “Cyclic peptides” (Scynexis, Inc., priority 2006, dated 2009).

Assays:
[1] = test system: human hepatoma cell line ET (lub ubi neo/ET); assay: Cytotoxicity (colorimetric cell number assay) in the ET line; details: cytotoxicity versus antiviral activity
Experimental: The compounds were dissolved in DMSO at five half-log concentrations each, ranging from either 0.03 to 3 μM or 1 to 100 μM. Subconfluent cultures of the ET line were plated out into 96 well plates dedicated for the analysis of cell numbers (cytotoxicity) or antiviral activity and the next day the compounds were added to the appropriate wells. […] Compound EC50 and EC90 values were derived from HCV RNA levels assessed as HCV RNA replicon derived LUC activity. Cytotoxicity was expressed as IC50 and IC90, the concentration of compound that inhibited cell viability by 50% and 90%, respectively. Compound IC50 and IC90 values were calculated using a colorimetric assay as an indication of cell numbers and cytotoxicity. The activity of the LUC reporter is directly proportional to HCV RNA levels in the human cell line. The HCV-replicon assay was validated in parallel experiments using interferon-alpha-2b as a positive control. Cyclosporine was also tested by way of comparison.

[2] = test system: human T-lymphoblastoid cell line, CEM-SS; assay: Compound toxicity (MTS) in CEM-SS cells; format: cell-based
Experimental: Certain compounds of the present invention were also tested for antiretroviral activity against human immunodeficiency virus-1 (HIV) using infection of the human T-lymphoblastoid cell line, CEM-SS, with the HIV strain […] (Weislow et al., 1989, J. Natl. Cancer Inst. 81:577-586). In this MTS cytoprotection assay, each experiment included cell control wells (cells only), virus control wells (cells plus virus), drug toxicity wells (cells plus drug only), drug calorimetric control wells (drug only) as well as experimental wells (drug plus cells plus virus). Compounds were first dissolved in DMSO and tested using six half-log dilutions, starting with a high concentration of either 20 or 2 μM. HIV-1RF was added to each well in a volume of 50 μL, the amount of virus determined to give approximately 90% cell killing at 6 days post-infection. At assay termination, assay plates were stained with the soluble tetrazolium-based dye MTS (CellTiter 96 Reagent, Promega) to determine cell viability and quantify compound toxicity. MTS is metabolized by the mitochondria enzymes of metabolically active cells to yield a soluble formazan product, providing a quantitative analysis of cell viability and compound cytotoxicity. The assay was validated in parallel experiments using Zidovudine (3′-azido-3′-deoxythymidine or AZT) as a positive control. […]

Structure (SMILES) | safety margin (antiviral IC50 versus cytotoxicity EC50) [1] | cytotoxicity at the concentrations that inhibit HIV [2]
C/C=C/C[C@@H](C)[C@@H](O)[C@H]1C(=O)N[C@@H](CC)C(=O)N(C)CC(=O)N(C)[C@@H](CC(C)C)C(=O)N[C@@H](C(C)C)C(=O)N(C)[C@@H](CC(C)C)C(=O)N[C@@H](C)C(=O)N[C@H](CCCCN)C(=O)N(C)[C@@H](CC(C)C)C(=O)N(C)[C@@H](CC(C)C)C(=O)N(C)[C@@H](C(C)C)C(=O)N1C [Compound 2, [D-Lysyl]^8cyclosporine] | exhibited a safety margin | –
C/C=C/C[C@@H](C)[C@@H](O)[C@H]1C(=O)N[C@@H](CC)C(=O)N(C)CC(=O)N(C)[C@@H](CC(C)C)C(=O)N[C@@H](C(C)C)C(=O)N(C)[C@@H](CC(C)C)C(=O)N[C@@H](C)C(=O)N[C@H](CCCCN(C)C)C(=O)N(C)[C@@H](CC(C)C)C(=O)N(C)[C@@H](CC(C)C)C(=O)N(C)[C@@H](C(C)C)C(=O)N1C [Compound 1, [(N,N-ε-Dimethyl)-D-lysyl]^8cyclosporine] | exhibited a safety margin | not cytotoxic
